Source: the NIST ThermoML archive (doi:10.1021/je060271a)

Details: 323.15 K, Liquid, Vibrating tube method

CCCCCCCC(=O)OCC(COC(=O)CCCCCCC)(COC(=O)CCCCCCC)COC(=O)CCCCCCC [pentaerythritol tetraoctanoate]
Details | mass density [kg/m3]
7680.3 kPa | 945.8
7700.7 kPa | 945.8
7720.9 kPa | 945.7
7748.8 kPa | 945.9
7769.4 kPa | 945.7
7790.4 kPa | 945.9
7811.3 kPa | 946
7832.2 kPa | 945.9
7857.7 kPa | 945.9
7878.8 kPa | 945.8
7900.5 kPa | 945.9
7922.1 kPa | 946
7947.7 kPa | 946
7968.9 kPa | 945.8
7990.6 kPa | 946
8017 kPa | 946
8039.8 kPa | 946
8061.6 kPa | 946.2
8084.3 kPa | 946.1
8107.1 kPa | 946.1
8134 kPa | 946.1
8156.6 kPa | 946
8179.4 kPa | 946.1
8206.5 kPa | 946
8229.4 kPa | 946.2
8252.6 kPa | 946.2
8275.8 kPa | 946.2
8303.6 kPa | 946.2
8327.1 kPa | 946.2
8355.7 kPa | 946.2
8379.5 kPa | 946.3
8404.2 kPa | 946.3
8428.3 kPa | 946.3
8452.5 kPa | 946.3
8482 kPa | 946.4
8506.8 kPa | 946.2
8531.5 kPa | 946.4
8560.6 kPa | 946.4
8585.3 kPa | 946.5
8610.8 kPa | 946.4
8640.7 kPa | 946.4
8666 kPa | 946.4
8691.5 kPa | 946.4
8722.7 kPa | 946.4
8748.4 kPa | 946.5
8774.8 kPa | 946.4
8806.4 kPa | 946.5
8832.8 kPa | 946.4
8859.7 kPa | 946.6
8886 kPa | 946.5
8918.8 kPa | 946.5
8945.9 kPa | 946.6
8972.8 kPa | 946.7
9006 kPa | 946.7
9034.1 kPa | 946.6
9062.8 kPa | 946.7
9092.9 kPa | 946.7
9121.3 kPa | 946.8
9155.1 kPa | 946.7
9183.5 kPa | 946.9
9212.7 kPa | 946.8
9247.8 kPa | 946.8
9276.8 kPa | 946.9
9311.6 kPa | 946.9
9341.2 kPa | 946.9
9371.1 kPa | 946.9
9401 kPa | 946.9
9437.9 kPa | 946.9
9469.8 kPa | 947
9503.2 kPa | 946.9
9534 kPa | 947.1
9570.9 kPa | 946.9
9602.4 kPa | 947
9633.9 kPa | 947
9665.6 kPa | 947.2
9704.2 kPa | 947.1
9736 kPa | 947.1
9774.4 kPa | 947.2
9806.9 kPa | 947.2
9834 kPa | 947.1
9860.5 kPa | 947.3
9901 kPa | 947.3
9949.2 kPa | 947.4
9984 kPa | 947.3
10026 kPa | 947.2
10059 kPa | 947.3
10090 kPa | 947.3
10128 kPa | 947.3
10160 kPa | 947.4
10192 kPa | 947.5
10231 kPa | 947.6
10264 kPa | 947.5
10297 kPa | 947.6
10337 kPa | 947.5
10372 kPa | 947.6
10405 kPa | 947.5
10435 kPa | 947.6
10467 kPa | 947.6
10494 kPa | 947.6
10520 kPa | 947.7
10553 kPa | 947.7
10580 kPa | 947.7
10608 kPa | 947.6
10643 kPa | 947.8
10672 kPa | 947.8
10695 kPa | 947.7
10719 kPa | 947.8
10739 kPa | 947.8
10759 kPa | 947.6
10779 kPa | 947.8
10802 kPa | 947.8
10822 kPa | 947.8
10847 kPa | 947.8
10867 kPa | 947.8
10887 kPa | 948
10911 kPa | 947.9
10932 kPa | 947.8
10948 kPa | 947.9
10977 kPa | 947.9
10997 kPa | 948
11019 kPa | 948.1
11040 kPa | 948.1
11065 kPa | 948
11086 kPa | 948
11111 kPa | 948
11132 kPa | 948.1
11153 kPa | 948.1
11175 kPa | 948.1
11200 kPa | 948.1
11222 kPa | 948.1
11248 kPa | 948.1
11270 kPa | 948.1
11292 kPa | 948.1
11319 kPa | 948.1
11341 kPa | 948.1
11362 kPa | 948.1
11384 kPa | 948.3
11411 kPa | 948.3
11433 kPa | 948.2
11460 kPa | 948.2
11483 kPa | 948.3
11506 kPa | 948.3
11533 kPa | 948.3
11555 kPa | 948.4
11579 kPa | 948.2
11607 kPa | 948.3
11626 kPa | 948.3
11654 kPa | 948.4
11678 kPa | 948.2
11701 kPa | 948.4
11725 kPa | 948.5
11744 kPa | 948.5
11768 kPa | 948.4
11792 kPa | 948.5
11831 kPa | 948.4
11855 kPa | 948.5
11880 kPa | 948.5
11909 kPa | 948.5
11935 kPa | 948.6
11961 kPa | 948.6
11986 kPa | 948.6
12010 kPa | 948.7
12041 kPa | 948.6
12065 kPa | 948.7
12095 kPa | 948.6
12120 kPa | 948.8
12146 kPa | 948.6
12176 kPa | 948.6
12202 kPa | 948.7
12228 kPa | 948.6
12255 kPa | 948.7
12286 kPa | 948.8
12313 kPa | 948.8
12339 kPa | 948.9
12456 kPa | 948.9
12482 kPa | 948.9
12510 kPa | 948.9
12537 kPa | 948.9
12570 kPa | 949
12598 kPa | 948.9
12626 kPa | 949
12660 kPa | 949
12688 kPa | 948.9
12716 kPa | 949
12744 kPa | 949
12777 kPa | 949
12805 kPa | 949.1
12839 kPa | 949
12868 kPa | 949.1
12897 kPa | 949.2
12932 kPa | 949.2
12961 kPa | 949.2
12990 kPa | 949.1
13026 kPa | 949.2
13056 kPa | 949.3
13080 kPa | 949.2
13104 kPa | 949.2
13134 kPa | 949.3
13170 kPa | 949.2
13212 kPa | 949.4
13248 kPa | 949.4
13279 kPa | 949.3
13310 kPa | 949.4
13347 kPa | 949.3
13378 kPa | 949.4
13409 kPa | 949.6
13447 kPa | 949.6
13479 kPa | 949.6
13511 kPa | 949.5
13543 kPa | 949.5
13581 kPa | 949.7
13614 kPa | 949.7
13652 kPa | 949.6
13685 kPa | 949.7
13717 kPa | 949.6
13756 kPa | 949.7
13790 kPa | 949.6
13823 kPa | 949.7
13863 kPa | 949.7
13897 kPa | 949.9
13932 kPa | 949.7
13965 kPa | 949.8
14007 kPa | 949.9
14041 kPa | 949.7
14076 kPa | 949.9
14118 kPa | 950
14152 kPa | 949.9
14187 kPa | 950
14230 kPa | 949.9
14266 kPa | 950
14301 kPa | 950.1
14345 kPa | 950.1
14376 kPa | 950.2
14414 kPa | 950.2
14452 kPa | 950.1
14505 kPa | 950.1
14544 kPa | 950.2
14573 kPa | 950.2
14617 kPa | 950.1
14647 kPa | 950.2
14671 kPa | 950.2
14707 kPa | 950.5
14738 kPa | 950.3
14780 kPa | 950.3
14812 kPa | 950.5
14846 kPa | 950.5
14877 kPa | 950.3
14909 kPa | 950.4
14947 kPa | 950.5
14979 kPa | 950.4
15012 kPa | 950.5
15052 kPa | 950.5
15085 kPa | 950.5
15114 kPa | 950.5
15143 kPa | 950.5
15167 kPa | 950.6
15191 kPa | 950.6
15220 kPa | 950.7
15246 kPa | 950.5
15270 kPa | 950.6
15299 kPa | 950.6
15324 kPa | 950.7
15350 kPa | 950.7
15374 kPa | 950.8
15404 kPa | 950.8
15430 kPa | 950.7
15454 kPa | 950.8
15485 kPa | 950.7
15510 kPa | 950.9
15541 kPa | 950.8
15567 kPa | 950.8
15594 kPa | 950.8
15619 kPa | 950.8
15650 kPa | 950.8
15677 kPa | 950.9
15702 kPa | 950.9
15734 kPa | 950.9
15761 kPa | 950.9
15787 kPa | 950.9
15818 kPa | 951
15845 kPa | 951.2
15872 kPa | 951
15903 kPa | 951.1
15931 kPa | 951.1
15954 kPa | 951
15980 kPa | 951.1
16008 kPa | 951.1
16046 kPa | 951.2
16073 kPa | 951.1
16106 kPa | 951.3
16134 kPa | 951.1
16161 kPa | 951.3
16194 kPa | 951.1
16222 kPa | 951.3
16245 kPa | 951.2
16273 kPa | 951.4
